In patent publication US11149054B2, “Oxysterols and methods of use thereof” (Sage Therapeutics, Inc., priority 2016, dated 2021):
Read-outs that look alike come from different tables or passages of the source.

Legend:
[1] = biological target: GlunN1/GluN2A glutamate receptors (Homo sapiens (Human), UniProt Q05586+Q12879); experiment: Whole-cell patch clamp of mammalian cells (Ionworks Barracuda), positive allosteric modulation, GluN1/GluN2A; assay type: cell-based
Description: (§1) The measurements were performed using Ion Works Barracuda platform following this procedure:
(§2) Electrophysiological Procedures:
(§3) • a) Intracellular solution (mM): 50 mM CsCl, 90 mM CsF, 2 mM MgCl2, 5 mM EGTA, 10 mM HEPES. Adjust to pH 7.2 with CsOH. • b) Extracellular solution, HB-PS (composition in mM): NaCl, 137; KCl, 1.0; CaCl2), 5; HEPES, 10; Glucose, 10; pH adjusted to 7.4 with NaOH (refrigerated until use). • c) Holding potential: −70 mV, potential during agonist/PAM application: −40 mV. Recording Procedure: • a) Extracellular buffer will be loaded into the PPC plate wells (11 μL per well). Cell suspension will be pipetted into the wells (9 μL per well) of the PPC planar electrode. • b) Whole-cell recording configuration will be established via patch perforation with membrane currents recorded by on-board patch clamp amplifiers. • c) Two recordings (scans) will be performed. First, during pre-application of test article alone (duration of pre-application—[…]) and second, during test articles and agonist (EC20 L-glutamate and 30 μM glycine) co-application to detect positive modulatory effects of the test article. […] Potentiating Effect of Positive Allosteric Modulators (PAM) on the Channel
(§4) PAM concentration-response data will be fitted to an equation of the form: % Activation=% L-glutamate EC20+{(% MAX−% L-glutamate EC20)/[1+([Test]/EC50)^N]}, where [Test] will be the concentration of PAM (test article), EC50 will be the concentration of PAM producing half-maximal activation, N will be the Hill coefficient, % L-glutamate EC20 will be the percentage of the current Elicited with L-glutamate EC20, % MAX is the percentage of the current activated with the highest dose of PAM co-admitted with L-glutamate EC20 and % Activation will be the percentage of the current elicited with L-glutamate EC10-30 at each PAM concentration. The maximal amplitude of the evoked currents are measured and defined as Peak Current Amplitude (PCA).

[2] = biological target: GluN2B glutamate receptors (Homo sapiens (Human), UniProt Q05586+Q13224); experiment: Whole-cell patch clamp of mammalian cells (Ionworks Barracuda), positive allosteric modulation, GluN2B; assay type: cell-based; conditions: for Emax: read-out: Avg Emax 2B (%)
GluN2B glutamate receptors, sequence (Q13224 27-1484, other chains not shown): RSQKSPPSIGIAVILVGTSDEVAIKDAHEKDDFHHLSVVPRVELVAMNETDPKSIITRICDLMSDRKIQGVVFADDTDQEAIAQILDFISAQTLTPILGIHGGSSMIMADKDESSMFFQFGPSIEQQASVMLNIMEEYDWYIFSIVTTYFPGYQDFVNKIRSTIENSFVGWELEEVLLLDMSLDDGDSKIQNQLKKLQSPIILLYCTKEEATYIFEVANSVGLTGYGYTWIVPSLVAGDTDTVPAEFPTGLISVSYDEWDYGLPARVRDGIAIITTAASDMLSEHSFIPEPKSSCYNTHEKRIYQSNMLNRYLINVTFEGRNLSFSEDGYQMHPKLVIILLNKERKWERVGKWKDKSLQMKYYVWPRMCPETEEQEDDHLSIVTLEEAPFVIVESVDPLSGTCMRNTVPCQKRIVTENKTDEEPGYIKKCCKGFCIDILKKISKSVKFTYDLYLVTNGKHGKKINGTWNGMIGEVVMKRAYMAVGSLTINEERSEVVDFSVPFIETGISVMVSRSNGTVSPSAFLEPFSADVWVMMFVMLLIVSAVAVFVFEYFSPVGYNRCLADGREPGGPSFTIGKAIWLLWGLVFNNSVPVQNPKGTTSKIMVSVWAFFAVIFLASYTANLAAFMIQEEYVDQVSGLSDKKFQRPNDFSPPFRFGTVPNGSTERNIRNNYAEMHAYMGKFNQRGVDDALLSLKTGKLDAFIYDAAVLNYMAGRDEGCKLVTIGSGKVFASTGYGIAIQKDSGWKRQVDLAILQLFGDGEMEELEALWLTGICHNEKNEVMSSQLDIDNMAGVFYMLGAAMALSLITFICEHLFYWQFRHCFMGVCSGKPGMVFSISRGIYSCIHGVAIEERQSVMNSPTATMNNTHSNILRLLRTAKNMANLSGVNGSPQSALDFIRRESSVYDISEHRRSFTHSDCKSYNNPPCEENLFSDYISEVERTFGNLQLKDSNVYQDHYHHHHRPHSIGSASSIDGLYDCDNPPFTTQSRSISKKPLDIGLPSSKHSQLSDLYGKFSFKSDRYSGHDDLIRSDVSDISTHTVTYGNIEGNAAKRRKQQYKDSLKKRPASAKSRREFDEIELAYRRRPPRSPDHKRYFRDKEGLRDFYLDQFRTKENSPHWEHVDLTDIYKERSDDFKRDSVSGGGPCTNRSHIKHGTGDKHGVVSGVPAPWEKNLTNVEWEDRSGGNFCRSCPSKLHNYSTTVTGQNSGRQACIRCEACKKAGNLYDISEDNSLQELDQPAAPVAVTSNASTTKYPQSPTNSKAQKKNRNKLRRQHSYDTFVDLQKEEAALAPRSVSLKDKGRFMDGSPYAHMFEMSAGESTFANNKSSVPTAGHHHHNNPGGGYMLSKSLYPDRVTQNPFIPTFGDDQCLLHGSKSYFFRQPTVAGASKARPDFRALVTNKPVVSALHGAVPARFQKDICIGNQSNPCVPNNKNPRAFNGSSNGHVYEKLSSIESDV
Description: as §1, §2, §3, §4

[3] = HEK293 cells, % potentiation of current elicited with EC20 L-glutamate and 30 μM glycine, read-out: Avg Emax 2A (%)
[4] = HEK293 cells, co-application with EC20 L-glutamate and 30 μM glycine, 8-point concentration-response, read-out: Avg EC50 2A
[5] = % potentiation of current elicited with EC20 L-glutamate and 30 μM glycine
[6] = co-application with EC20 L-glutamate and 30 μM glycine, 8-point concentration-response, read-out: Avg EC50 2B
[7] = HEK293, read-out: Avg Emax 2A (%)

GlunN1/GluN2A glutamate receptors, sequence (Q12879 23-1464, other chains not shown): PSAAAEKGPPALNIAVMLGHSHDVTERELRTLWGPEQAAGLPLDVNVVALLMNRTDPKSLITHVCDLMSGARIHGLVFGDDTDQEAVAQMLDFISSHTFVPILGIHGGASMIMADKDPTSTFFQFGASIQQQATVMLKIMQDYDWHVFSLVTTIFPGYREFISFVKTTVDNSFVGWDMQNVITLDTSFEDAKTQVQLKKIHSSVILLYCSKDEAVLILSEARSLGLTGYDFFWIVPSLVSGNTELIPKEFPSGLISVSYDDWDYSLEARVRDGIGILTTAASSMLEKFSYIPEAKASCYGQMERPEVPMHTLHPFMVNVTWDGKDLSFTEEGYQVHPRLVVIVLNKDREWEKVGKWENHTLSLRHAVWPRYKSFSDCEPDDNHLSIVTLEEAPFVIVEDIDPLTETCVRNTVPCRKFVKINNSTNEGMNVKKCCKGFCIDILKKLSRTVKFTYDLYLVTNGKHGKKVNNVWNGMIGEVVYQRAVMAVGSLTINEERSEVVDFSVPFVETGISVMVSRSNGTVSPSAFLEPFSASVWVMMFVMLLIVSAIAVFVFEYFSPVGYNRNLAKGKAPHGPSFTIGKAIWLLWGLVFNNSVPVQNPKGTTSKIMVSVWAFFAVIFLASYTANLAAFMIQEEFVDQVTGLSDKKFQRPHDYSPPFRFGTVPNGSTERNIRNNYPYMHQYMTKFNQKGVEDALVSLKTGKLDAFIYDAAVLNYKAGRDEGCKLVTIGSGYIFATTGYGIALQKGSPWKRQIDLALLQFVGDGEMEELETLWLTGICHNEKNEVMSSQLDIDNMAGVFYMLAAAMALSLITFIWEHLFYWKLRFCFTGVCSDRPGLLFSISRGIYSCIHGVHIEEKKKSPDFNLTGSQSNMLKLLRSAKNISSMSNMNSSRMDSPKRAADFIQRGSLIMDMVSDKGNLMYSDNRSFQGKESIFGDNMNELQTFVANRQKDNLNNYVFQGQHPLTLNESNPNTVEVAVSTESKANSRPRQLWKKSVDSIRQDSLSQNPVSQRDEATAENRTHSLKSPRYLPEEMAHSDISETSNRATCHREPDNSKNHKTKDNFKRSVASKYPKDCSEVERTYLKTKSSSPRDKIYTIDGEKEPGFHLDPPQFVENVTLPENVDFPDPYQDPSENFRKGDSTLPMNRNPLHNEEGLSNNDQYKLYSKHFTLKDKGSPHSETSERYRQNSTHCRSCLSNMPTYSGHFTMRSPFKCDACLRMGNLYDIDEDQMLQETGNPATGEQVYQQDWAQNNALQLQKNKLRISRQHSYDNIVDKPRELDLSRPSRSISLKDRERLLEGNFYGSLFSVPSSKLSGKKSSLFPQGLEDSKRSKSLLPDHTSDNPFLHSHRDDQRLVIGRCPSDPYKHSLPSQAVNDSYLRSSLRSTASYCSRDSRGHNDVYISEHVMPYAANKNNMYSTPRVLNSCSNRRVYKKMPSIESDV

Row | Structure (SMILES) | EC50 [1] [nM] | EC50 [2] [nM] | Emax [1, 3] [%] | EC50 [1, 4] [nM] | Emax [2, 5] [%] | EC50 [2, 6] [nM] | Emax [1, 7] [%] | Emax [2] [%]
1 | C[C@H](CC[C@@H](O)C(F)(F)F)[C@H]1CC[C@H]2[C@@H]3CC=C4C[C@](O)(C(F)(F)F)CC[C@]4(C)[C@H]3CC[C@]12C [Compound 3149] | 69.7 | 60.7 |  |  |  |  |  | 
2 | C[C@H](CC[C@@H](C)O)[C@H]1CC[C@H]2[C@@H]3CC=C4C[C@](O)(C(F)(F)F)CC[C@]4(C)[C@H]3CC[C@]12C [Compound 3266] |  |  | 82.6 | 147 | 135 | 377 |  | 
3 | C[C@H](CC[C@@H](O)C(C)(C)C)[C@H]1CC[C@H]2[C@@H]3CC=C4C[C@](O)(C(F)(F)F)CC[C@]4(C)[C@H]3CC[C@]12C [Compound 3382] | 67.6 | 126 |  |  |  |  |  | 
4 | C[C@H](CC[C@@]1(O)CCOC1)[C@H]1CC[C@H]2[C@@H]3CC=C4C[C@](O)(C(F)(F)F)CC[C@]4(C)[C@H]3CC[C@]12C [Compound 3495] |  |  |  |  |  |  | 107 | 146
5 | C[C@H](CC[C@H](O)C(C)(C)C)[C@H]1CC[C@H]2[C@@H]3CC=C4C[C@](O)(C(F)(F)F)CC[C@]4(C)[C@H]3CC[C@]12C [Compound 3507] | 165 | 191 |  |  |  |  |  | 
6 | C[C@H](CC[C@H](O)C(C)(C)C)[C@H]1CC[C@H]2[C@@H]3CC[C@@H]4C[C@](O)(C(F)(F)F)CC[C@]4(C)[C@H]3CC[C@]12C [Compound 3634] | 423 | 404 |  |  |  |  |  | 
7 | C[C@H](CC[C@@H](O)C(C)(C)C)[C@H]1CC[C@H]2[C@@H]3CC[C@@H]4C[C@](O)(C(F)(F)F)CC[C@]4(C)[C@H]3CC[C@]12C [Compound 3788] | 1320 | 1120 |  |  |  |  |  | 
8 | C[C@H](CC[C@]1(O)CC[C@@H](C)CC1)[C@H]1CC[C@H]2[C@@H]3CC[C@H]4C[C@](O)(C(F)(F)F)CC[C@]4(C)[C@H]3CC[C@]12C [Compound 3886] |  |  |  |  |  |  | 106 | 164
9 | C[C@H](CCC1(O)CCCCCC1)[C@H]1CC[C@H]2[C@@H]3CC[C@H]4C[C@](O)(C(F)(F)F)CC[C@]4(C)[C@H]3CC[C@]12C [Compound 3983] | 88.1 | 248 |  |  |  |  |  | 
10 | C[C@H](CCC1(O)CCCCC1)[C@H]1CC[C@H]2[C@@H]3CC[C@H]4C[C@](O)(C(F)(F)F)CC[C@]4(C)[C@H]3CC[C@]12C [Compound 4023] | 516 | 406 | 322 |  | 418 |  |  | 
11 | C[C@H](CCCC1(O)CC1)[C@H]1CC[C@H]2[C@@H]3CC[C@H]4C[C@](O)(C(F)(F)F)CC[C@]4(C)[C@H]3CC[C@]12C [Compound 4115] | 91.9 | 114 |  |  |  |  |  | 
12 | C[C@H](CC[C@H](O)C1CCCCC1)[C@H]1CC[C@H]2[C@@H]3CC[C@H]4C[C@](O)(C(F)(F)F)CC[C@]4(C)[C@H]3CC[C@]12C [Compound 4155] | 442 | 612 | 164 |  | 198 |  |  | 
13 | C[C@H](CC[C@@H](O)C1CCCCC1)[C@H]1CC[C@H]2[C@@H]3CC[C@H]4C[C@](O)(C(F)(F)F)CC[C@]4(C)[C@H]3CC[C@]12C [Compound 4156] | > 10000 | > 10000 | 10.6 |  | 20.1 |  |  | 
14 | CC(C)[C@H]1CC[C@@](O)(CC[C@@H](C)[C@H]2CC[C@H]3[C@@H]4CC[C@H]5C[C@](O)(C(F)(F)F)CC[C@]5(C)[C@H]4CC[C@]23C)CC1 [Compound 4258] | 1030 | 640 | 184 |  | 242 |  |  | 
15 | CC(C)[C@H]1CC[C@](O)(CC[C@@H](C)[C@H]2CC[C@H]3[C@@H]4CC[C@H]5C[C@](O)(C(F)(F)F)CC[C@]5(C)[C@H]4CC[C@]23C)CC1 [Compound 4259] | > 10000 | > 10000 | -13.3 |  | 24.3 |  |  | 
16 | C[C@H](CCC1(O)CCC(C(C)(C)C)CC1)[C@H]1CC[C@H]2[C@@H]3CC[C@H]4C[C@](O)(C(F)(F)F)CC[C@]4(C)[C@H]3CC[C@]12C (some centres unmarked) [Compound 4360] |  |  | 38.1 |  | 14.6 |  |  | 
17 | CC[C@H]1CC[C@@](O)(CC[C@@H](C)[C@H]2CC[C@H]3[C@@H]4CC[C@H]5C[C@](O)(C(F)(F)F)CC[C@]5(C)[C@H]4CC[C@]23C)CC1 [Compound 4475] | 461 | 266 | 364 |  | 355 |  |  | 
18 | CC[C@H]1CC[C@](O)(CC[C@@H](C)[C@H]2CC[C@H]3[C@@H]4CC[C@H]5C[C@](O)(C(F)(F)F)CC[C@]5(C)[C@H]4CC[C@]23C)CC1 [Compound 4476] | > 10000 | > 10000 | -3.3 |  | 10.4 |  |  | 
19 | CO[C@H]1CC[C@@](O)(CC[C@@H](C)[C@H]2CC[C@H]3[C@@H]4CC[C@H]5C[C@](O)(C(F)(F)F)CC[C@]5(C)[C@H]4CC[C@]23C)CC1 [Compound 4555] | > 10000 | > 10000 | 22.8 |  | 31.9 |  |  | 
20 | CO[C@H]1CC[C@](O)(CC[C@@H](C)[C@H]2CC[C@H]3[C@@H]4CC[C@H]5C[C@](O)(C(F)(F)F)CC[C@]5(C)[C@H]4CC[C@]23C)CC1 [Compound 4585] | 215 | 166 | 72.2 |  | 123 |  |  | 
21 | COC[C@H]1CC[C@@](O)(CC[C@@H](C)[C@H]2CC[C@H]3[C@@H]4CC[C@H]5C[C@](O)(C(F)(F)F)CC[C@]5(C)[C@H]4CC[C@]23C)CC1 [Compound 4656] | 1600 | 2160 | 134 |  | 122 |  |  | 
22 | COC[C@H]1CC[C@](O)(CC[C@@H](C)[C@H]2CC[C@H]3[C@@H]4CC[C@H]5C[C@](O)(C(F)(F)F)CC[C@]5(C)[C@H]4CC[C@]23C)CC1 [Compound 4657] | 422 | 130 | 74 |  | 62.9 |  |  | 
23 | C[C@H](CCC1(O)CCC(C)(C)CC1)[C@H]1CC[C@H]2[C@@H]3CC=C4C[C@](O)(C(F)(F)F)CC[C@]4(C)[C@H]3CC[C@]12C [Compound 4799] | > 10000 | 760 | 36.1 |  | 32.8 |  |  | 
24 | C[C@H](CCC1(O)CCC2(CC1)CC2)[C@H]1CC[C@H]2[C@@H]3CC[C@H]4C[C@](O)(C(F)(F)F)CC[C@]4(C)[C@H]3CC[C@]12C [Compound 4805] | 356 | 362 | 175 |  | 129 |  |  | 
25 | CCC1(C)CCC(O)(CC[C@@H](C)[C@H]2CC[C@H]3[C@@H]4CC[C@H]5C[C@](O)(C(F)(F)F)CC[C@]5(C)[C@H]4CC[C@]23C)CC1 (some centres unmarked) [Compound 4906] |  |  | 8.8 | > 10000 | 14.8 | > 10000 |  | 
26 | C[C@H](CCC1(O)CCC2(CC1)COC2)[C@H]1CC[C@H]2[C@@H]3CC[C@H]4C[C@](O)(C(F)(F)F)CC[C@]4(C)[C@H]3CC[C@]12C [Compound 5009] | > 10000 | > 10000 | 27.5 |  | 14.5 |  |  | 
27 | C[C@H](CCCC(C)(C)O)[C@H]1CC[C@H]2[C@@H]3CC[C@H]4C[C@](O)(C(F)(F)F)CC[C@]4(C)[C@H]3CC[C@]12C [Compound 5116] |  |  | 185 | 102 | 214 | 130 |  | 
28 | C[C@H](CCC1(O)CCC(OC(F)F)CC1)[C@H]1CC[C@H]2[C@@H]3CC[C@H]4C[C@](O)(C(F)(F)F)CC[C@]4(C)[C@H]3CC[C@]12C (some centres unmarked) [Compound 5131] |  |  |  |  |  |  | 52.9 | 39
29 | C[C@H](CCC1(O)CCC(C)(C)CC1)[C@H]1CC[C@H]2[C@@H]3CC[C@@H]4C[C@](O)(C(F)(F)F)CC[C@]4(C)[C@H]3C(=O)C[C@]12C [Compound 5294] |  |  | 32.4 |  | 13.9 |  |  | 
